Measured values published in PMC9977845 (2023).

Key:
[1] = system: B2; d(CGCTAGCG)2 (DNA, duplex) CGCTAGCG; assay: UV-VIS titration, chemometric (PCA) Scatchard analysis; conditions: Na+ 10 mM (NaCl); 2.5 mM cacodylate pH 5.0; 0.01 mM ligand; microscopic constant
[2] = system: D4 (DNA, duplex) GGGTACCC; assay: 1H NMR; conditions: Na+ 10 mM (NaCl), 2.5 mM cacodylate pH 5.0
[3] = system: D7 (DNA, duplex) GTACGTAC; assay: 1H NMR; conditions: Na+ 10 mM (NaCl); 2.5 mM cacodylate pH 5.0; intercalation at TA/TA
[4] = system: D8 (DNA, duplex) CTAGCTAG; assay: 1H NMR; conditions: Na+ 10 mM (NaCl); 2.5 mM cacodylate pH 5.0; intercalation at TA/TA
D1 (DNA, duplex) CCCGGG = assay: 1H NMR; conditions: Na+ 10 mM (NaCl); 2.5 mM cacodylate pH 5.0; intercalation at CG/CG
[5] = system: B3; D2; d(CGATATCG)2 (DNA, duplex) CGATATCG; assay: UV-VIS titration, chemometric (PCA) Scatchard analysis; conditions: Na+ 10 mM (NaCl); 2.5 mM cacodylate pH 5.0; 0.01 mM ligand; microscopic constant
[6] = system: B1; d(CGGTACCG)2 (DNA, duplex) CGGTACCG; assay: as above; conditions: Na+ 10 mM (NaCl); 2.5 mM cacodylate pH 5.0; 0.01 mM ligand; microscopic constant
[7] = system: D3; d(CCCTAGGG)2 (DNA, duplex) CCCTAGGG; assay: 2D NMR (NOESY) and restrained MD structure; conditions: Na+ 10 mM (NaCl); 2.5 mM cacodylate pH 5.0; 5 °C; intercalation at TA/TA
[8] = system: B3; D2; d(CGATATCG)2 (DNA, duplex) CGATATCG; assay: 2D NMR (NOESY) and restrained MD structure; conditions: Na+ 10 mM (NaCl); 2.5 mM cacodylate pH 5.0; 5 °C; intercalation at TA/TA
[9] = system: B3; D2; d(CGATATCG)2 (DNA, duplex) CGATATCG; assay: 1H NMR titration; conditions: Na+ 10 mM (NaCl), 2.5 mM cacodylate pH 5.0, unspecific
[10] = system: B4; d(CGTTAACG)2 (DNA, duplex) CGTTAACG; assay: UV-VIS titration, chemometric (PCA) Scatchard analysis; conditions: Na+ 10 mM (NaCl); 2.5 mM cacodylate pH 5.0; 0.01 mM ligand; microscopic constant
[11] = system: B2; d(CGCTAGCG)2 (DNA, duplex) CGCTAGCG; assay: 2D NMR (NOESY) and restrained MD structure; conditions: Na+ 10 mM (NaCl); 2.5 mM cacodylate pH 5.0; 5 °C; intercalation at TA/TA
[12] = unspecific, no intercalation site, duplex:ligand 1:1.5

`CCN(CC)CCNc1ccc2ncn3c4ccc(O)cc4c(=O)c1c23` was tested, and the Dissociation constant [1] was 0.260 µM, the binding ([2]; intercalation at TA/TA) was “yes” and the binding [3] was “yes”. For the same compound, the binding [4] was “yes”, the binding (D1 (DNA, duplex) CCCGGG) was “yes” and the Dissociation constant [5] was 0.156 µM. The Dissociation constant [6] was 0.524 µM, the binding [7] was “yes” and the binding [8] was “yes”.
`CN(C)CCCNc1c2ccccc2nc2cccc([N+](=O)[O-])c12` was tested, and the binding [2, 12] was “weak” and the binding ([9]; presumably minor groove at centre, no defined intercalation) was “weak”.
With `CN(C)CCCNc1ccc2nnn3c4ccc(O)cc4c(=O)c1c23` the Dissociation constant [1] was 0.227 µM, the Dissociation constant [10] was 0.248 µM and the Dissociation constant [5] was 0.608 µM. For the same compound, the Dissociation constant [6] was 0.145 µM and the binding [11] was “yes”.
With `Cc1ccc([N+](=O)[O-])c2c(NCCO)c3ccccc3nc12` the binding [2, 12] was “weak” and the binding ([9]; weaker than C-283) was “weak”.
